Series [1] relates to venous malformation. Put plainly: Electrosclerotherapy case, Example 2 (patient, photographs, 3 years follow-up).
In series [2] the test system is symptomatic venous malformation of the left thigh. The series can be described thus: Electrosclerotherapy case, Example 1 (patient, MRI follow-up). The format is in vivo, human. To be noted: 1.5 mg bleomycin. How it is done: FIGS. 1A and 1C show magnetic resonance of a symptomatic venous malformation of the left thigh in a patient previously treated with surgery and sclerotherapy;
FIGS. 1B and 1D show magnetic resonance of the symptomatic venous malformation of FIG. 1A three months after one electrosclerotherapy session.
A patient with a symptomatic venous malformation of the left thigh, causing swelling, pain, and partial immobility, recurring after surgery and sclerotherapy with Aethoxysklerol was treated with electrosclerotherapy using custom geometry electrodes and 1.5 mg bleomycin. […] Volume of the lesion before treatment: 26.79 cm^3; volume of the lesion after treatment: 0.00 cm^3.

For series [3], the system named is venous malformations that did not respond to previous invasive therapies. To be noted: 17 patients, cited from earlier work.

For `CCO` [ethanol], in series [1] (7 sessions of ethanol sclerotherapy, without electric pulses), the outcome of sclerotherapy is recorded as “unsuccessfully treated”.
Turning to bleomycin, the “magnetic resonance imaging outcome of the malformation” value in series [2] (custom geometry electrodes, 3 months after one session of electrosclerotherapy) is listed as “complete resolution of the malformation”. Further, in series [2] (one electrosclerotherapy session), the adverse events result is “No documented adverse events”. For the same compound, the “volume of the lesion after treatment” value in series [2] (one electrosclerotherapy session, volume before treatment 26.79 cm^3) turned out to be 0.00 cm^3. Moreover, the clinical improvement entry in series [3] (after an average of 3.7 months and 1.12 sessions per patient) was “clinical improvement in all patients”. Moreover, in series [3] (bleomycin in combination with reversible electroporation, average 3.7 months and 1.12 sessions per patient), the “decrease in lesion volume on magnetic resonance imaging (average)” value is on record as 86%. The functionality of nerves entry in series [1] (2 sessions of electrosclerotherapy, finger electrode, 2 mg of Bleomycin per session, 3 years follow-up) is recorded as “Functionality of nerves is preserved”.

The record behind these values is patent publication US20250152936A1, “METHOD FOR THE TREATMENT OF VASCULAR ANOMALIES BY ADMINISTERING ONE OR MORE SCLEROSING AGENTS AND APPLYING A SERIES OF ELECTRIC PULSES” (IGEA S.P.A., priority 2023, published 2025).
